Data on nine compounds can be found in PubChem BioAssay AID248 (DTP/NCI, 2004).

In the experiment the test system is L1210 leukemia ip in BDF1 mice, survival T/C. Kind of experiment: NCI In Vivo Anticancer Drug Screen. Data for tumor model L1210 Leukemia (intraperitoneal) in B6D2F1 (BDF1) mice. Particulars: endpoint: mean survival time, higher = longer survival. Summed up:
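Mice bearing the transplanted tumor received compound or vehicle. Survival of the treated group was divided by that of the vehicle-treated control group to give the ratio.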

Where [1] appears, read: dose: 50.0 mg/kg/injection, schedule: Q01DX001 (ip), vehicle: saline.
The mark [2] stands for this setting: dose: 100.0 mg/kg/injection, schedule: Q01DX001 (ip), vehicle: saline.
Setting [3] is: dose: 200.0 mg/kg/injection, schedule: Q01DX001 (ip), vehicle: saline.
The mark [4] stands for this setting: dose: 400.0 mg/kg/injection, schedule: Q01DX001 (ip), vehicle: saline.
The mark [5] stands for this setting: dose: 100.0 mg/kg/injection, schedule: Q01DX001 (ip), vehicle: carboxymethylcellulose (CMC).
Where [6] appears, read: dose: 200.0 mg/kg/injection, schedule: Q01DX001 (ip), vehicle: carboxymethylcellulose (CMC).

Values joined by “and” are separate entries in the source; they are usually repeats but may differ in a detail not shown here. Equal values may be shown once. Inconclusive results and toxic doses are left out.

Take `CC(C)NCC(=O)c1ccc(O)c(O)c1`: the T/C (dose: 20.0 mg/kg/injection, schedule: Q01DX Z (ip), vehicle: saline) was 98 % of control; the T/C (dose: 20.0 mg/kg/injection, schedule: Q#A X Z (ip), vehicle: methylcellulose (MC)) is 96 % of control; the T/C (dose: 25.0 mg/kg/injection, schedule: Q01DX Z (ip), vehicle: carboxymethylcellulose (CMC)) was 107 % of control; the T/C (dose: 25.0 mg/kg/injection, schedule: Q03DX Z (ip), vehicle: carboxymethylcellulose (CMC)) was 93 % of control; the T/C (dose: 29.0 mg/kg/injection, schedule: Q03HX024 (ip), vehicle: saline) was 95 % of control; the T/C (dose: 31.0 mg/kg/injection, schedule: Q01DX Z (ip), vehicle: carboxymethylcellulose (CMC)) was 106 % of control. In addition, the T/C is 107 % of control and 89 % of control (dose: 40.0 mg/kg/injection, schedule: Q01DX Z (ip), vehicle: saline); 104 % of control (dose: 43.0 mg/kg/injection, schedule: Q03HX024 (ip), vehicle: saline); 122 % of control (dose: 49.0 mg/kg/injection, schedule: Q01DX Z (ip), vehicle: saline); 96 % of control under setting [1]; 104 % of control (dose: 50.0 mg/kg/injection, schedule: Q01DX Z (ip), vehicle: carboxymethylcellulose (CMC)); 93 % of control (dose: 50.0 mg/kg/injection, schedule: Q03DX Z (ip), vehicle: carboxymethylcellulose (CMC)). Further, the T/C (dose: 59.0 mg/kg/injection, schedule: Q04DX003 (ip), vehicle: saline) is 94 % of control; the T/C (dose: 62.0 mg/kg/injection, schedule: Q01DX Z (ip), vehicle: carboxymethylcellulose (CMC)) is 119 % of control; the T/C (dose: 64.0 mg/kg/injection, schedule: Q03HX024 (ip), vehicle: saline) was 105 % of control; the T/C (dose: 80.0 mg/kg/injection, schedule: Q01DX Z (ip), vehicle: saline) was 97 % of control and 119 % of control; the T/C (dose: 88.0 mg/kg/injection, schedule: Q04DX003 (ip), vehicle: saline) was 100 % of control; the T/C (dose: 96.0 mg/kg/injection, schedule: Q03HX024 (ip), vehicle: saline) is 106 % of control. For the same compound, the T/C is, setting by setting: under setting [2], 107 % of control; (dose: 100.0 mg/kg/injection, schedule: Q01DX009 (ip), vehicle: saline) 104 % of control; (dose: 100.0 mg/kg/injection, schedule: Q01DX Z (ip), vehicle: carboxymethylcellulose (CMC)) 115 % of control; (dose: 100.0 mg/kg/injection, schedule: Q03DX Z (ip), vehicle: carboxymethylcellulose (CMC)) 100 % of control; (dose: 100.0 mg/kg/injection, schedule: Q04DX003 (ip), vehicle: saline) 103 % of control; (dose: 120.0 mg/kg/injection, schedule: Q03DX Z (ip), vehicle: methylcellulose (MC)) 102 % of control. Further, the T/C was 105 % of control (dose: 125.0 mg/kg/injection, schedule: Q01DX Z (ip), vehicle: carboxymethylcellulose (CMC)); 98 % of control (dose: 131.0 mg/kg/injection, schedule: Q04DX003 (ip), vehicle: saline); 114 % of control (dose: 143.0 mg/kg/injection, schedule: Q01DX009 (ip), vehicle: saline); 101 % of control and 118 % of control (dose: 143.0 mg/kg/injection, schedule: Q03HX024 (ip), vehicle: saline); 104 % of control and 121 % of control (dose: 160.0 mg/kg/injection, schedule: Q01DX Z (ip), vehicle: saline); 104 % of control (dose: 196.0 mg/kg/injection, schedule: Q04DX003 (ip), vehicle: saline). Besides, the T/C is 107 % of control under setting [3]; 115 % of control (dose: 200.0 mg/kg/injection, schedule: Q01DX009 (ip), vehicle: saline); 100 % of control (dose: 200.0 mg/kg/injection, schedule: Q03DX Z (ip), vehicle: carboxymethylcellulose (CMC)); 109 % of control (dose: 200.0 mg/kg/injection, schedule: Q04DX003 (ip), vehicle: saline); 184 % of control (dose: 210.0 mg/kg/injection, schedule: Q01DX009 (ip), vehicle: saline); 116 % of control (dose: 210.0 mg/kg/injection, schedule: Q03HX024 (ip), vehicle: saline). Moreover, the T/C by setting is: (dose: 240.0 mg/kg/injection, schedule: Q03DX Z (ip), vehicle: methylcellulose (MC)) 113 % of control; (dose: 288.0 mg/kg/injection, schedule: Q01DX001 (ip), vehicle: saline) 102 % of control; (dose: 288.0 mg/kg/injection, schedule: Q04DX003 (ip), vehicle: saline) 154 % of control; (dose: 320.0 mg/kg/injection, schedule: Q01DX009 (ip), vehicle: saline) 104 % of control; (dose: 320.0 mg/kg/injection, schedule: Q03HX024 (ip), vehicle: saline) 111 % of control; under setting [4], 107 % of control. For the same compound, the T/C is, setting by setting: (dose: 400.0 mg/kg/injection, schedule: Q01DX009 (ip), vehicle: saline) 107 % of control; (dose: 400.0 mg/kg/injection, schedule: Q01DX Z (ip), vehicle: carboxymethylcellulose (CMC)) 111 % of control; (dose: 400.0 mg/kg/injection, schedule: Q03DX Z (ip), vehicle: carboxymethylcellulose (CMC)) 114 % of control; (dose: 400.0 mg/kg/injection, schedule: Q04DX003 (ip), vehicle: saline) 104 % of control; (dose: 430.0 mg/kg/injection, schedule: Q04DX003 (ip), vehicle: saline) 103 % of control; (dose: 478.0 mg/kg/injection, schedule: Q01DX009 (ip), vehicle: saline) 116 % of control. The T/C (dose: 480.0 mg/kg/injection, schedule: Q03DX Z (ip), vehicle: methylcellulose (MC)) was 102 % of control.
In the case of `CCOC(=O)c1ccc(N=Cc2cnc3nc(NC(C)=O)[nH]c(=O)c3n2)cc1`, the T/C reads like this: (dose: 100.0 mg/kg/injection, schedule: Q01DX001 (ip), vehicle: other) 103 % of control; (dose: 200.0 mg/kg/injection, schedule: Q01DX001 (ip), vehicle: other) 96 % of control; (dose: 400.0 mg/kg/injection, schedule: Q01DX001 (ip), vehicle: other) 103 % of control.
Consider `CC(=O)c1cccc(OC(=O)c2ccccc2)c1`, for which the T/C is 112 % of control under setting [1], 106 % of control under setting [2], 104 % of control under setting [3] and 104 % of control under setting [4].
Regarding `Nc1nc(N)c(-c2ccc(Cl)cc2)c(C=O)n1`, the T/C is 108 % of control under setting [5]; 87 % of control under setting [6]; 108 % of control (dose: 400.0 mg/kg/injection, schedule: Q01DX001 (ip), vehicle: carboxymethylcellulose (CMC)).
On to `O=P(NO)(Oc1ccccc1)Oc1ccccc1`, for which the T/C runs as follows: (dose: 50.0 mg/kg/injection, schedule: Q01DX001 (ip), vehicle: carboxymethylcellulose (CMC)) 101 % of control; under setting [5], 95 % of control; under setting [6], 100 % of control.
For `C/C(C/C(C)=N/O)=N/O.C/C(C/C(C)=N/O)=N\O.[Cl][Rh][Cl]`, the T/C was 100 % of control (dose: 25.0 mg/kg/injection, schedule: Q01DX009 (ip), vehicle: water); 97 % of control (dose: 50.0 mg/kg/injection, schedule: Q01DX009 (ip), vehicle: water); 97 % of control (dose: 100.0 mg/kg/injection, schedule: Q01DX009 (ip), vehicle: water); 100 % of control (dose: 200.0 mg/kg/injection, schedule: Q01DX009 (ip), vehicle: water); 94 % of control (dose: 400.0 mg/kg/injection, schedule: Q01DX009 (ip), vehicle: water).
As for `CCOC(=O)CCC(NC(=O)Cc1ccc(NC(=O)C(F)(F)F)cc1)C(=O)OCC` (stereo not given), the T/C was 105 % of control (dose: 100.0 mg/kg/injection, schedule: Q01DX009 (ip), vehicle: Klucel (hydroxypropylcellulose) (HPC)); 96 % of control (dose: 200.0 mg/kg/injection, schedule: Q01DX009 (ip), vehicle: Klucel (hydroxypropylcellulose) (HPC)); 98 % of control (dose: 400.0 mg/kg/injection, schedule: Q01DX009 (ip), vehicle: Klucel (hydroxypropylcellulose) (HPC)).
Take `CCCCNCCN(CC)CC`: the T/C (dose: 100.0 mg/kg/injection, schedule: Q04DX003 (ip), vehicle: saline with Tween-80) is 98 % of control.
Turning to `O=C1OC(c2ccccc2)=N/C1=C\c1cccnc1`, the T/C was 90 % of control (dose: 50.0 mg/kg/injection, schedule: Q04DX002 (ip), vehicle: Klucel (hydroxypropylcellulose) (HPC)); 96 % of control (dose: 100.0 mg/kg/injection, schedule: Q04DX002 (ip), vehicle: Klucel (hydroxypropylcellulose) (HPC)); 86 % of control (dose: 200.0 mg/kg/injection, schedule: Q04DX002 (ip), vehicle: Klucel (hydroxypropylcellulose) (HPC)); 86 % of control (dose: 400.0 mg/kg/injection, schedule: Q04DX002 (ip), vehicle: Klucel (hydroxypropylcellulose) (HPC)).
